Assay [1] in a line: Inhibitory activity against uridine phosphorylase at a concentration of 4 mM by using 5-fluorouracil and ribose 1-phosphate as substrates; NI = No inhibition.
Assay [2] concerns the target T1, Purine nucleoside phosphorylase (Homo sapiens) (UniProt P00491).
T1 sequence (whole entry): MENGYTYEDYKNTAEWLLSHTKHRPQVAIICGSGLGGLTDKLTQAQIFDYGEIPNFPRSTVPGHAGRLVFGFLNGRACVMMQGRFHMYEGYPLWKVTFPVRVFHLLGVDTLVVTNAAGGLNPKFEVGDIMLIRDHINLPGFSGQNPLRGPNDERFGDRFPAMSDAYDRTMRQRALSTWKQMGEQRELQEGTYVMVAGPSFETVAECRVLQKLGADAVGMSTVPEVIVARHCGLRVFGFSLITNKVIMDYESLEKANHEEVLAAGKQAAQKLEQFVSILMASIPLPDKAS
The assay is described as follows: Inhibitory activity against purine nucleoside phosphorylase at a concentration of 6 mM; NA = No activity.

The source made the active and inactive calls. No cut-off for these calls is given here.

On to `O=P(O)(O)C[C@H]1O[C@H](CO)[C@@H](O)[C@H]1O`, for which the inhibition result in assay [1] and in assay [2] was “inactive” throughout.

Take `O=P(O)(O)C[C@@H]1O[C@H](CO)[C@@H](O)[C@H]1O`: the inhibition entry in assay [2] was “inactive”.

The values above are taken from ChEMBL document CHEMBL1122706, “2,5-Anhydro-1-deoxy-1-phosphono-D-altritol, an isosteric analogue of alpha-D-ribofuranose 1-phosphate” (J Med Chem, 1984).
